Measurements: patent US20230240296A1, “SEED TREATMENT FOR SAFENING WHEAT TO CHLOROACETAMIDE HERBICIDES” (THE BOARD OF TRUSTEES OF THE UNIVERSITY OF ARKANSAS, priority 2022, published 2023)

Test system: wheat cultivar 'Smiths Gold'
Assay: Field trial: fenclorim seed treatment safening wheat against preemergence S-metolachlor (crop injury)
Assay type: in vivo
Protocol: Thus, in some embodiments, the methods of the present invention reduce herbicide-induced crop injury. The reduction in crop injury, due to a particular herbicide, provided by a particular safener can be determined by visually assessing crop injury in a plot of wheat treated with both the herbicide and the safener and comparing it to the crop injury observed in a control plot that was treated with the herbicide alone. Crop injury may be assessed by assigning the treated plot a rating on a scale of 0 to 100, wherein 0 indicates no crop injury and 100 indicates complete crop destruction. This score may be assigned, for example, by comparing the crop groundcover (i.e., green pixels) in the treated plot to that of the control plot using photographs.
Group 15 herbicides are promising candidates for controlling ryegrass in wheat. However, these herbicides are not currently registered for use in this crop. Thus, a field trial was conducted in Fayetteville, Ark. in fall of 2021 to test the ability of the safener fenclorim to protect wheat against the Group 15 herbicide S-metolachlor.
Seed from the conventional wheat cultivar ‘Smiths Gold’ was treated with various rates of the safener fenclorim (0, 0.5, and 2.0 g/kg seed). […] Crop injury and control of ryegrass were evaluated at two and three weeks after crop emergence. […]

## Clc1cc(Cl)nc(-c2ccccc2)n1 [fenclorim, 4,6-dichloro-2-phenyl-pyrimidine]
Fenclorim seed treatment 0.5 and 2.0 g/kg seed, S-metolachlor 750 and 1120 g ai/ha preemergence, two and three weeks after crop emergence, field, Fayetteville, Ark.
  safening against S-metolachlor (percentage of injury to wheat): significant safening was achieved
Fenclorim seed treatment 0.5 or 2.0 g/kg seed, S-metolachlor 750 g ai/ha preemergent, two weeks after crop emergence
  safening shown in plot photos of wheat plants: safening provided
